In patent US12226381B2, “Composition of fused tricyclic gamma-amino acid derivatives and the preparation thereof” (SICHUAN HAISCO PHARMACEUTICAL CO., LTD., priority 2018, dated 2025) one finds effective dose and mechanical pain threshold data, which are given here for two compounds.

The assay concerns CCI molded SD rats. The experiment in a line: Rat CCI-induced nociception sensitization model, mechanical pain threshold. In kind it is in vivo. The note with it: single oral administration; for mechanical pain threshold: FIGS. 2 and 3. As to the method: 3. Rat CCI-Induced Nociception Sensitization Model
SD rats of 160-180 g were purchased from Charles River (Beijing) with a license number of sCXK (Beijing)-2012-001 and a qualification number of 11400700254251. The surgery was performed to establish the CCI model as follows: the animals ware first anesthetized, then the left posterior sciatic nerve was exposed. A 2 mm long PE-90 catheter was applied to the middle site of the sciatic nerve. Finally the muscle and skin were sutured. Adaptation of the animal's left hind limb at 15g was carried out from day 10 after the surgery, three times a week.
The baseline testing was performed 17 days after surgery (starting from 2g at the time of testing, with an upper limit of 8g and a lower limit of 1g which is the −24h point), with a pain threshold of 1-4g as a grouping criterion. Grouping was done according to baseline test results, with 10 animals per group. The animals in the group were fasted but given water overnight. On the second day, mechanical pain values were tested at 2 h, 4 h and 6 h after oral/intragastric administration. The test started at 8 g, with an upper limit of 15g and a lower limit of 1g.
The data were processed according to equation (1) to calculate the PWT 50% value, where Xf is the log value of the final test fibers used in the test, k is a table value (Chaplan et al., 1994), and δ is the mean difference (here 0.224). PWT50%(g)=(10[Xf+kδ])/10000 [equation (1)]
The data were expressed in a form of mean±standard deviation (X±s) and were statistically analyzed using one-way ANOVA and Dunnett's t test (Graphpad prism 6.01).

In the case of `NC[C@@]1(CC(=O)O)[C@@H]2CC[C@H]3C[C@@H]2[C@@H]1C3.O=S(=O)(O)c1ccccc1` [Compound 1], the effective dose was determined as 3 mg/kg and the mechanical pain threshold result is “significantly increased”.
For `CC(C)C[C@H](CN)CC(=O)O` [pregabalin], in that order: 10 mg/kg and “significantly increased”.
